# In the supplement of paper PMC4862054:
# What was measured:
# [1] = system: MDA-MB-453; details: 72 h
# Procedure, shortened: (§1)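 Compound dissolved in 5 µl medium was placed in 384-well plates before 20 µl of breast cancer cell suspension was added, and the plates were incubated for 72 h. Cells then received 2.5 µl CellTiter-Blue for 2 h at 37 °C, and fluorescence was read at 560/590 nm. EC50 values come from percent-inhibition dose-response fits that were censored at the highest concentration, with plates normalised to vehicle and a positive kill control and rows with a zero drug sensitivity score excluded.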
# [2] = system: DU-4475; details: 72 h
# Procedure, shortened: as §1
# [3] = system: CAL-85-1; details: 72 h
# Procedure, shortened: as §1
# [4] = system: HDQ-P1; details: 72 h
# Procedure, shortened: as §1
# [5] = system: MCF-10A; details: 72 h
# Procedure, shortened: (§2)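 EC50 was fitted from dose-response curves and censored at the highest concentration tested. To build those curves, breast cancer cell lines (20 µl suspension) were seeded into 384-well plates containing compound at 5 concentrations in 10-fold steps over a compound-specific 10,000-fold range and incubated for 72 h. Readouts were CellTox Green fluorescence (485/520 nm) for cell death and then CellTiter-Glo luminescence for viability, with each plate normalised to 0.1 % DMSO and a positive kill control.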
# [6] = system: HCC1599; details: 72 h
# Procedure, shortened: as §2
# [7] = system: MDA-MB-453; details: 72 h; remark: listed apart in the source
# Procedure, shortened: as §2
# [8] = system: HCC1143; details: 72 h
# Procedure, shortened: as §2
# [9] = system: BT-474; details: 72 h
# Procedure, shortened: as §2
# [10] = system: CAL-51; details: 72 h
# Procedure, shortened: as §2
# [11] = system: MDA-MB-436; details: 72 h
# Procedure, shortened: as §2
# [12] = system: DU-4475; details: 72 h; remark: listed apart in the source
# Procedure, shortened: as §2
# [13] = system: BT-549; details: 72 h
# Procedure, shortened: as §2
# [14] = system: CAL-148; details: 72 h
# Procedure, shortened: as §2
# [15] = system: CAL-85-1; details: 72 h; remark: listed apart in the source
# Procedure, shortened: as §2
# [16] = system: HCC1937; details: 72 h
# Procedure, shortened: as §2
# [17] = system: SK-BR-3; details: 72 h
# Procedure, shortened: as §2
# [18] = system: Hs578T; details: 72 h
# Procedure, shortened: as §2
# [19] = system: MDA-MB-231; details: 72 h
# Procedure, shortened: as §2
# [20] = system: MFM-223; details: 72 h
# Procedure, shortened: as §2
# [21] = system: HDQ-P1; details: 72 h; remark: listed apart in the source
# Procedure, shortened: as §2
# [22] = system: MCF-10A; details: 72 h; remark: listed apart in the source
# Description: (§3)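 Drug sensitivity and resistance testing (DSRT) of breast cancer cell lines in 384-well plates, 5 concentrations in 10-fold dilutions over a compound-specific 10,000-fold range. After 72 h, cytotoxicity was read by CellTox Green fluorescence and viability by CellTiter-Glo luminescence (multiplexed), normalised to DMSO and benzethonium chloride controls. EC50 is the inflection point of the fitted dose-response curve (bottom asymptote free, so it can be relative for partial curves) and is censored at the highest tested concentration. Rows with DSS 0 (no meaningful response) were excluded.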
# [23] = system: HCC1143; details: 72 h; remark: listed apart in the source
# Description: as §3
# [24] = system: BT-474; details: 72 h; remark: listed apart in the source
# Description: as §3
# [25] = system: CAL-51; details: 72 h; remark: listed apart in the source
# Description: as §3
# [26] = system: DU-4475; details: 72 h; remark: listed apart in the source
# Description: as §3
# [27] = system: CAL-148; details: 72 h; remark: listed apart in the source
# Description: as §3
# [28] = system: CAL-85-1; details: 72 h; remark: listed apart in the source
# Description: as §3
# [29] = system: Hs578T; details: 72 h; remark: listed apart in the source
# Description: as §3
# [30] = system: MDA-MB-231; details: 72 h; remark: listed apart in the source
# Description: as §3
# [31] = system: HDQ-P1; details: 72 h; remark: listed apart in the source
# Description: as §3
# [32] = system: HCC1599; details: 72 h; remark: listed apart in the source
# Procedure, shortened: as §1
# [33] = system: HCC1143; details: 72 h; remark: listed apart in the source
# Procedure, shortened: as §1
# [34] = system: BT-474; details: 72 h; remark: listed apart in the source
# Procedure, shortened: as §1
# [35] = system: Hs578T; details: 72 h; remark: listed apart in the source
# Procedure, shortened: as §1
# [36] = system: MDA-MB-231; details: 72 h; remark: listed apart in the source
# Procedure, shortened: as §1
# [37] = system: MFM-223; details: 72 h; remark: listed apart in the source
# Procedure, shortened: as §1
# [38] = system: HCC1599; assay: normalised viability (% of control), CellTiter-Blue; higher = more viable cells (about 100 = DMSO control); details: incubation time: 72 h
# Procedure, shortened: (§4)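 Vehicle (100) and a positive kill control (0) anchored the normalisation of each plate, and Z'-factor was used for quality control. Breast cancer cell lines in 20 µl suspension were incubated 72 h over compound in 5 µl medium in 384-well plates, followed by CellTiter-Blue at 560/590 nm. The value is normalised viability at a single listed concentration of the series.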
# [39] = system: SK-BR-3; assay: as above; details: incubation time: 72 h
# Procedure, shortened: as §4
# [40] = system: CAL-120; assay: as above; details: incubation time: 72 h
# Procedure, shortened: as §4
# [41] = system: HCC1599; details: 72 h; remark: listed apart in the source
# Description: as §3
# [42] = system: BT-549; details: 72 h; remark: listed apart in the source
# Description: as §3
# [43] = system: CAL-120; details: 72 h
# Description: as §3
# [44] = system: MDA-MB-468; details: 72 h
# Description: as §3
# [45] = system: MFM-223; details: 72 h; remark: listed apart in the source
# Description: as §3
# [46] = system: MDA-MB-468; details: 72 h; remark: listed apart in the source
# Procedure, shortened: as §1
structure (smiles),measurement,setting,value
C=CCNC1=C2C[C@@H](C)C[C@H](OC)[C@H](O)[C@@H](C)/C=C(\C)[C@H](OC(N)=O)[C@@H](OC)/C=C\C=C(/C)C(=O)NC(=CC1=O)C2=O [Tanespimycin],"EC50, CellTiter-Blue viability",[1],15.5 nM
same,"EC50, CellTiter-Blue viability",[2],48.4 nM
same,"EC50, CellTiter-Blue viability",[3],194 nM
same,"EC50, CellTiter-Blue viability",[4],82.7 nM
same,"EC50, CellTiter-Glo",[5],87.8 nM
same,"EC50, CellTiter-Glo",[6],266 nM
same,"EC50, CellTiter-Glo",[7],23.4 nM
same,"EC50, CellTiter-Glo",[8],63 nM
same,"EC50, CellTiter-Glo",[9],324 nM
same,"EC50, CellTiter-Glo",[10],78.2 nM
same,"EC50, CellTiter-Glo",[11],28 nM
same,"EC50, CellTiter-Glo",[12],208 nM
same,"EC50, CellTiter-Glo",[13],52.9 nM
same,"EC50, CellTiter-Glo",[14],178 nM
same,"EC50, CellTiter-Glo",[15],404 nM
same,"EC50, CellTiter-Glo",[16],113 nM
same,"EC50, CellTiter-Glo",[17],46.3 nM
same,"EC50, CellTiter-Glo",[18],97.9 nM
same,"EC50, CellTiter-Glo",[19],371 nM
same,"EC50, CellTiter-Glo",[20],64.1 nM
same,"EC50, CellTiter-Glo",[21],103 nM
same,"EC50, CellTox Green",[22],105 nM
same,"EC50, CellTox Green",[23],> 10000 nM
same,"EC50, CellTox Green",[24],696 nM
same,"EC50, CellTox Green",[25],122 nM
same,"EC50, CellTox Green",[26],179 nM
same,"EC50, CellTox Green",[27],112 nM
same,"EC50, CellTox Green",[28],46.1 nM
same,"EC50, CellTox Green",[29],4340 nM
same,"EC50, CellTox Green",[30],24.8 nM
same,"EC50, CellTox Green",[31],112 nM
same,"EC50, CellTiter-Blue viability",[32],84.3 nM
same,"EC50, CellTiter-Blue viability",[33],8.84 nM
same,"EC50, CellTiter-Blue viability",[34],48.4 nM
same,"EC50, CellTiter-Blue viability",[35],36.9 nM
same,"EC50, CellTiter-Blue viability",[36],722 nM
same,"EC50, CellTiter-Blue viability",[37],18.4 nM
same,normalised viability,[38]; 10 nM,123%
same,normalised viability,[38]; 1000 nM,42.7%
same,normalised viability,[38]; 10000 nM,31.3%
same,normalised viability,[39]; 10 nM,73.6%
same,normalised viability,[39]; 1000 nM,17.4%
same,normalised viability,[39]; 10000 nM,13%
same,normalised viability,[40]; 10 nM,74.2%
same,normalised viability,[40]; 1000 nM,24.2%
same,normalised viability,[40]; 10000 nM,16.4%
CC[C@]1(O)C[C@@H]2CN(CCc3c([nH]c4ccccc34)[C@@](C(=O)OC)(c3cc4c(cc3OC)N(C)[C@H]3[C@@](O)(C(=O)OC)[C@H](OC(C)=O)[C@]5(CC)C=CCN6CC[C@]43[C@@H]65)C2)C1 [Vinblastine],"EC50, CellTiter-Blue viability",[1],6.17 nM
same,"EC50, CellTiter-Blue viability",[2],52.4 nM
same,"EC50, CellTiter-Blue viability",[3],6.34 nM
same,"EC50, CellTiter-Blue viability",[4],5.43 nM
same,"EC50, CellTiter-Glo",[5],2.59 nM
same,"EC50, CellTiter-Glo",[6],19.7 nM
same,"EC50, CellTiter-Glo",[7],2.44 nM
same,"EC50, CellTiter-Glo",[8],2.51 nM
same,"EC50, CellTiter-Glo",[9],5.38 nM
same,"EC50, CellTiter-Glo",[10],8.68 nM
same,"EC50, CellTiter-Glo",[11],3.49 nM
same,"EC50, CellTiter-Glo",[12],75.5 nM
same,"EC50, CellTiter-Glo",[13],2.25 nM
same,"EC50, CellTiter-Glo",[14],8.95 nM
same,"EC50, CellTiter-Glo",[15],2.04 nM
same,"EC50, CellTiter-Glo",[16],2.55 nM
same,"EC50, CellTiter-Glo",[17],2.44 nM
same,"EC50, CellTiter-Glo",[18],9.25 nM
same,"EC50, CellTiter-Glo",[19],5.07 nM
same,"EC50, CellTiter-Glo",[20],12.4 nM
same,"EC50, CellTiter-Glo",[21],5.35 nM
same,"EC50, CellTox Green",[22],11.4 nM
same,"EC50, CellTox Green",[41],7.49 nM
same,"EC50, CellTox Green",[23],61.8 nM
same,"EC50, CellTox Green",[24],2.92 nM
same,"EC50, CellTox Green",[25],3.78 nM
same,"EC50, CellTox Green",[42],4.29 nM
same,"EC50, CellTox Green",[28],9.62 nM
same,"EC50, CellTox Green",[29],15.2 nM
same,"EC50, CellTox Green",[30],15.8 nM
same,"EC50, CellTox Green",[43],> 1000 nM
same,"EC50, CellTox Green",[44],2.48 nM
same,"EC50, CellTox Green",[45],7.9 nM
same,"EC50, CellTiter-Blue viability",[32],61.1 nM
same,"EC50, CellTiter-Blue viability",[33],1.61 nM
same,"EC50, CellTiter-Blue viability",[34],0.15 nM
same,"EC50, CellTiter-Blue viability",[35],1.3 nM
same,"EC50, CellTiter-Blue viability",[36],1.61 nM
same,"EC50, CellTiter-Blue viability",[46],1.5 nM
same,"EC50, CellTiter-Blue viability",[37],36 nM
same,normalised viability,[38]; 1 nM,106%
same,normalised viability,[38]; 100 nM,56.9%
same,normalised viability,[38]; 1000 nM,45.5%
same,normalised viability,[39]; 1 nM,27.6%
same,normalised viability,[39]; 100 nM,16.5%
same,normalised viability,[39]; 1000 nM,16.4%
same,normalised viability,[40]; 1 nM,35.4%
same,normalised viability,[40]; 100 nM,18.5%
same,normalised viability,[40]; 1000 nM,20.1%
